Measurements as given in patent US10221144B2, “Antibacterial compounds having broad spectrum of activity” (priority 2014, dated 2019).
Where two headings read alike, the source gives them in different places.

Key:
Assay type in all cases: biochemical
E. coli DNA gyrase = molecular target: T1, E. coli DNA gyrase (Escherichia coli, UniProt P0AES4+P0AES6); experiment: DNA gyrase supercoiling assay (E. coli); conditions: for inhibition at 50 µM: E. coli, conc. 50 μM, n/a = not active
T1 construct: purchased Inspiralis, UK
Outline: (§1)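 Relaxed pBR322 (0.5 μg) supercoiled by E. coli (2 U) or S. aureus (1 U) gyrase, 30 min at 37° C; compounds at single 200, 100 or 50 μM, duplicate. Supercoiled band quantified on ethidium-stained agarose gel, expressed as % inhibition vs DMSO control; IC50 by two-parameter exponential decay fit.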

[1] = molecular target: T2, S. aureus Topoisomerase IV (Staphylococcus aureus, UniProt P0C1S7+P0C1U9); experiment: Topoisomerase IV decatenation assay (S. aureus); conditions: for inhibition at 50 µM: read-out: % inhibition Topo IV
T2 construct: purchased Inspiralis, UK
Method: The above compounds were tested for the inhibition of the enzyme DNA gyrase in a gyrase supercoiling assay and for the inhibition of the enzyme topoisomerase IV in a decatenation assay, in both Gram positive and Gram negative bacteria, according to the following methods.
Both the assays were carried out according to a set-up method modified from the article to Blanche F, et al. “Differential Behaviors of Staphylococcus aureus and Escherichia coli Type II DNA Topoisomerases”, Antimicrob. Agents Chemother., 1996, Vol. 40, No. 12 p. 2714-2720.
The compounds were screened at single concentration (200, 100 or 50 μM), in duplicate.
S. aureus and E. coli Topoisomerase IV decatenation kits (Inspiralis, UK) were used. A master mix with a total volume sufficient for the number of reactions to perform was prepared with the following reagents: 5× assay buffer (50 mM HEPES-KOH (pH 7.6), 100 mM potassium glutamate, 10 mM magnesium acetate, 10 mM DTT, 1 mM ATP, 50 μg/ml albumin), kDNA substrate (200 ng/reaction), RNase-DNase free water. Aliquots of this mix were dispensed in each tube, then 10× compound stock solutions or vehicle control (DMSO), were added in each reaction tube.
Reaction was started with Topoisomerase IV enzyme (0.5 U/reaction) addition.
A sample added with an equal volume of dilution buffer was used as negative control (without enzyme).
The reaction tubes were gentle vortexed and incubated 30 minutes at 37° C. Each reaction was stopped by adding 30 μl of Stop Buffer and 30 μl of chloroform/isoamyl alcohol (24/1), briefly vortexed for 5-10 seconds and centrifuged at 20000×g for 2 minutes. Samples taken from the upper phase were loaded into 1% agarose gel and subjected to electrophoresis for 1 hour at 80V constant voltage in TAE (40 mM Tris-acetate, 2 mM EDTA).
Data acquisition and analysis. Due to the high molecular mass, kDNA could not enter an agarose gel under normal electrophoresis conditions, but remained in the wells. In the presence of Topo IV topoisomerase mini-circles (2.5 Kb) were released from kDNA by decatenation and were quickly and easily resolved in the gel at relatively high voltages.
Bands were visualized by ethidium bromide staining (dil 1:20000) for 30 minutes followed by destaining in distilled water for 10 minutes.
For single concentration screening assay, in order to evaluate the compounds activity on the enzymes, the bands of decatenated DNAs in the gel were photographed by a digital imaging system ImageQuant LAS 4000 (GE Healthcare) according to manufacturer's instructions.
The fluorescent intensity of each band was analyzed by ImageQuant TL software and it was expressed as volume (volume of the uncalibrated quantity of material in the image feature after subtraction of the background intensity by using rolling ball method).
Each band intensity was compared, as percentage, to vehicle sample band intensity, which served as positive control, on the same gel.
Inhibitory activity was expressed as percent of inhibition versus the positive control.
The supercoiled or decatenated DNA bands obtained as described in Example 1 were analysed as follows.
Bands were analyzed by gel documentation equipment (Syngene, Cambridge, UK) and quantitated using Syngene Gene Tools software. Raw gel data (fluorescent band volumes) collected from Syngene, GeneTools gel analysis software were converted to a percentage of the 100% control (the fully supercoiled or decatenated DNA band). […] The IC50 data were calculated by using the global curve fit non-linear regression tool by selecting the Single, 2 Parameter fit function from the Exponential Decay equation category.

E. coli Topoisomerase IV = molecular target: T3, E. coli Topoisomerase IV (Escherichia coli, UniProt P0AFI2+P20083); experiment: Topoisomerase IV decatenation assay (E. coli); conditions: for inhibition at 50 µM: E. coli, conc. 50 μM, n/a = not active, read-out: % inhibition Topo IV
T3 construct: purchased Inspiralis, UK
Outline: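 Topo IV decatenation of kDNA (200 ng) with 0.5 U enzyme in HEPES-KOH pH 7.6 buffer containing 1 mM ATP and Mg acetate, 30 min at 37 °C. Single-concentration screen (200, 100 or 50 μM) in duplicate. Decatenated minicircles resolved on agarose, ethidium-stained band intensity expressed as % inhibition versus vehicle; IC50 from exponential-decay curve fit.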

S. aureus DNA gyrase = molecular target: T4, S. aureus DNA gyrase (Staphylococcus aureus, UniProt P0A0K8+P20831); experiment: DNA gyrase supercoiling assay (S. aureus); conditions: for inhibition at 50 µM: S. aureus, conc. 50 μM, n/a = not active
T4 construct: purchased Inspiralis, UK
Outline: as §1

[2] = S. aureus, conc. 50 μM, n/a = not active

T4 sequence (P0A0K8 whole entry): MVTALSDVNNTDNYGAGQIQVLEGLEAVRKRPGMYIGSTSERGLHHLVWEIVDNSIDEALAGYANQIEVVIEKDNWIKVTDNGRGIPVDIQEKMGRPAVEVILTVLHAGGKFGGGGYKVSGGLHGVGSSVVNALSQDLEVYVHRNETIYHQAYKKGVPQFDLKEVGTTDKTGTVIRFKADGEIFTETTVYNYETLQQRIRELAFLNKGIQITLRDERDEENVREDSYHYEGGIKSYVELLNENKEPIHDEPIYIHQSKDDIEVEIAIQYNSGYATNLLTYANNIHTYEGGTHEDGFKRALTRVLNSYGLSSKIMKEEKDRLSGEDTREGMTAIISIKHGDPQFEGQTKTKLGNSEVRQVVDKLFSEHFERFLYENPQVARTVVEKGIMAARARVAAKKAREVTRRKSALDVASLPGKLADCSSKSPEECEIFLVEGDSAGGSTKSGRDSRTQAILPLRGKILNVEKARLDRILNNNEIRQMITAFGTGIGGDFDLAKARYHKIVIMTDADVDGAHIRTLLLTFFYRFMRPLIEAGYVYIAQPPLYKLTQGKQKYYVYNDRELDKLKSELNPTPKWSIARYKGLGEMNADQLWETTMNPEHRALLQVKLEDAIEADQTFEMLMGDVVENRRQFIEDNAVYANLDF
T4 sequence (P20831 whole entry): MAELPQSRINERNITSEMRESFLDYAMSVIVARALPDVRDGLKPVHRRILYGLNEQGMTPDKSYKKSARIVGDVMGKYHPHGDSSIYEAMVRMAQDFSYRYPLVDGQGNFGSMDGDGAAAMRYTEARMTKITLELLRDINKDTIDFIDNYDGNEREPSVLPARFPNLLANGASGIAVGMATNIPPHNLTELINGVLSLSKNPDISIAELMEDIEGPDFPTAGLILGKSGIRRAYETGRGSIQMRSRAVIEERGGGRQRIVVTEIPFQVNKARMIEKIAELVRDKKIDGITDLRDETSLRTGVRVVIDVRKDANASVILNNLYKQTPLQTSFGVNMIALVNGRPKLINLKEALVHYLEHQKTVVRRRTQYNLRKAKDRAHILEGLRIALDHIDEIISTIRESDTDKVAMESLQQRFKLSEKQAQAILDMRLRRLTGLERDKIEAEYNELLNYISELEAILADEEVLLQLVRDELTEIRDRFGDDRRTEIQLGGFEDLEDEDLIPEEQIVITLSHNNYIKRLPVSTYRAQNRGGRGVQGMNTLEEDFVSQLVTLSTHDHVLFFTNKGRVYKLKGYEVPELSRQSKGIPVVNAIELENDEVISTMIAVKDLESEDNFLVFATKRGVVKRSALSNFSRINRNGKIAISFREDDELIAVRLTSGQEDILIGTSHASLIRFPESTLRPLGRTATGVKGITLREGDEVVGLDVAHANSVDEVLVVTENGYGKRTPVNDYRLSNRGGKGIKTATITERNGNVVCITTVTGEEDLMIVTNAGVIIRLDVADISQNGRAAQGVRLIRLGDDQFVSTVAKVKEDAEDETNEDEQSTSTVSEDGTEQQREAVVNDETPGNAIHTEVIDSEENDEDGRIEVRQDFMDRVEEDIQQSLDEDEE
T3 sequence (P20083 whole entry): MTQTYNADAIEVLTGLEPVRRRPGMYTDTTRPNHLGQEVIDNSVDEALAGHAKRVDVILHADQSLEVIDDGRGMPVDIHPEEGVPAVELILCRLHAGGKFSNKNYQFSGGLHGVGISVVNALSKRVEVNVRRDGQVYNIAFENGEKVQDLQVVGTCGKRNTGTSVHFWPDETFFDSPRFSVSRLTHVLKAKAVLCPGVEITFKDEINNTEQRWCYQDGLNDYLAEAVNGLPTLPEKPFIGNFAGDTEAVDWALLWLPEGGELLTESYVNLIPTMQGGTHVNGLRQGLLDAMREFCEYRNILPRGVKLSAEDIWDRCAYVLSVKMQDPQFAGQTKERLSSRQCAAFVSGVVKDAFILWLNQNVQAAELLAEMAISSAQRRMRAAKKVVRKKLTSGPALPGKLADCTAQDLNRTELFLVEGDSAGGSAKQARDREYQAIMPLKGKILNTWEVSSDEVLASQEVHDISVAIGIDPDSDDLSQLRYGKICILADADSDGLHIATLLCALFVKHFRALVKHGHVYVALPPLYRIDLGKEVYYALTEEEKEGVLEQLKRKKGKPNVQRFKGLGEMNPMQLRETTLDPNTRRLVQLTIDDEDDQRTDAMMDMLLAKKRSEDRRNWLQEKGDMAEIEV
T3 sequence (P0AFI2 whole entry): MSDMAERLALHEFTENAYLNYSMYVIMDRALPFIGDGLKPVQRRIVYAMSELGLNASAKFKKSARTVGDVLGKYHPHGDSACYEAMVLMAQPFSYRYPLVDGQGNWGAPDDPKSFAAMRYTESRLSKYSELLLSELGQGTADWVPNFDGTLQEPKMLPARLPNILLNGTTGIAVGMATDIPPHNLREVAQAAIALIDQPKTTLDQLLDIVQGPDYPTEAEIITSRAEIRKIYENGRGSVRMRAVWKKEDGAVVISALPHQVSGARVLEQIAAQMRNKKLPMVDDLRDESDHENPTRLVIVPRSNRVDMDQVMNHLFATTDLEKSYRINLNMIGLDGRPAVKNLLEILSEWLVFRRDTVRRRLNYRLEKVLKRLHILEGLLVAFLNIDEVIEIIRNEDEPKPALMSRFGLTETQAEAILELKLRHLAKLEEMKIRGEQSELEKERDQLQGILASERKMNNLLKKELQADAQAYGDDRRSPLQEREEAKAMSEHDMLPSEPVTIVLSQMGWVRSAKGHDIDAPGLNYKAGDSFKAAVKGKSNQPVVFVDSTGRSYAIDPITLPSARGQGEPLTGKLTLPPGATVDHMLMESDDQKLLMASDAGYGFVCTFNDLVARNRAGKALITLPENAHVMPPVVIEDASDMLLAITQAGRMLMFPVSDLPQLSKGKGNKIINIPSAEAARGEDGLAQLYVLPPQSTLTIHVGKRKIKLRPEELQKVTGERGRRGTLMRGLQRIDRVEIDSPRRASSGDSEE
T2 sequence (P0C1S7 whole entry): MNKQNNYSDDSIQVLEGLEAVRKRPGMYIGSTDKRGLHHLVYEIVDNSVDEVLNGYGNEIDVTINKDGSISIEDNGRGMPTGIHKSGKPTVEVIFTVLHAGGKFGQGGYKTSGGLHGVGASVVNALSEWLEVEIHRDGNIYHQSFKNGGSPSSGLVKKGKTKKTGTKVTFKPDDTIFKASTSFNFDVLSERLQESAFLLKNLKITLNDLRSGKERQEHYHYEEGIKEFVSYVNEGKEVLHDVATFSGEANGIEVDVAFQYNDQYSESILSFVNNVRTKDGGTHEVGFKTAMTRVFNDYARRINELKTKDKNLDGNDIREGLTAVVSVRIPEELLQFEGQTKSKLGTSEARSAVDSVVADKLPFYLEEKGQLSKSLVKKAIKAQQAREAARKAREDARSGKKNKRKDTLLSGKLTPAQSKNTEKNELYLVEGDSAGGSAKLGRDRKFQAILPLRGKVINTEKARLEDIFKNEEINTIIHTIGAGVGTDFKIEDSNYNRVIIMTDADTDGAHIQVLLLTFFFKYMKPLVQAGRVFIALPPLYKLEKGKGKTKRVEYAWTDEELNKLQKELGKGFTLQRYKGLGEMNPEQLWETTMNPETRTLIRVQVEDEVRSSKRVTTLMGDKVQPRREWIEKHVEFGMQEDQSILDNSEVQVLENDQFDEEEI
T2 sequence (P0C1U9 whole entry): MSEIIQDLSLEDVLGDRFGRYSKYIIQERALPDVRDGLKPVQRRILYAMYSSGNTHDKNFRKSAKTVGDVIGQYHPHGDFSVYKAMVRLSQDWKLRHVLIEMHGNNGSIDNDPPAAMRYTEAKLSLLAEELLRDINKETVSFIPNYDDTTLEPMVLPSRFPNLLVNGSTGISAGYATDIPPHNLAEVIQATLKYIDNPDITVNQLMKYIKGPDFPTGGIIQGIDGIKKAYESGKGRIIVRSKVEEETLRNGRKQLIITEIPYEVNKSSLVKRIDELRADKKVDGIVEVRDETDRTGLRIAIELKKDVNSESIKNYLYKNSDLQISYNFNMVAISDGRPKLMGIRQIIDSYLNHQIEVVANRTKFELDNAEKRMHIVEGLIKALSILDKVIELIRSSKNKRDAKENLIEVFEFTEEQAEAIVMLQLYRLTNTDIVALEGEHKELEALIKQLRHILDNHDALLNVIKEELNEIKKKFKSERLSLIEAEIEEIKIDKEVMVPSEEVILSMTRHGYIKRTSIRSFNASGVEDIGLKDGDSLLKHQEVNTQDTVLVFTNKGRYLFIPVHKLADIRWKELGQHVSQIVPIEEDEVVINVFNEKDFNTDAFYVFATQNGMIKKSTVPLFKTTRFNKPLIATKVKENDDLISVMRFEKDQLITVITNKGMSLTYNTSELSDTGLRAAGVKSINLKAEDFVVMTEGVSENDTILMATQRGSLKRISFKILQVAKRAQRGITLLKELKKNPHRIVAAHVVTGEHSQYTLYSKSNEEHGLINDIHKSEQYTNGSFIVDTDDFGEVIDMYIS

O=c1oc2ccc(F)cc2c2cc(CNC3CCN(c4nccc5ncccc45)CC3)[nH]c12 [Compound 187, 8-fluoro-2-({[1-(1,6-naphthyridin-5-yl)piperidin-4-yl]amino}methyl)[1]benzopyrano[3,4-b]pyrrol-4(3H)-one] showed an IC50 (E. coli DNA gyrase) of 190 nM, an inhibition at 50 µM (E. coli DNA gyrase) of 79% and an IC50 [1] of 1370 nM. The inhibition at 50 µM [1, 2] was 95%, the IC50 (E. coli Topoisomerase IV) was 1570 nM and the inhibition at 50 µM (E. coli Topoisomerase IV) was 82%. For the same compound, the IC50 (S. aureus DNA gyrase) was 160 nM and the inhibition at 50 µM (S. aureus DNA gyrase) was 95%.

COc1ccc2nccc(N3CCC(NCc4cc5c([nH]4)c(=O)oc4ccc(F)cc45)CC3)c2n1 [Compound 188, 8-fluoro-2-({[1-(6-methoxy-1,5-naphthyridin-4-yl)piperidin-4-yl]amino}methyl)[1]benzopyrano[3,4-b]pyrrol-4(3H)-one] showed an IC50 (E. coli DNA gyrase) of 90 nM, an inhibition at 50 µM (E. coli DNA gyrase) of 100% and an IC50 [1] of 200 nM. The inhibition at 50 µM [1, 2] was 98%, the IC50 (E. coli Topoisomerase IV) was 300 nM and the inhibition at 50 µM (E. coli Topoisomerase IV) was 92%. It also gave an IC50 (S. aureus DNA gyrase) of 15 nM and an inhibition at 50 µM (S. aureus DNA gyrase) of 97%.

With COc1ccc2ncc(F)c(N3CCC(NCc4cc5c([nH]4)c(=O)oc4ccc(F)cc45)CC3)c2n1 [Compound 192, 8-fluoro-2-({[1-(3-fluoro-6-methoxy-1,5-naphthyridin-4-yl)piperidin-4-yl]amino}methyl)[1]benzopyrano[3,4-b]pyrrol-4(3H)-one] the IC50 (E. coli DNA gyrase) was 80 nM, the inhibition at 50 µM (E. coli DNA gyrase) was 70% and the IC50 [1] was 100 nM. It also gave an inhibition at 50 µM [1, 2] of 76%, an IC50 (E. coli Topoisomerase IV) of 130 nM and an inhibition at 50 µM (E. coli Topoisomerase IV) of 37%. For the same compound, the IC50 (S. aureus DNA gyrase) was 17 nM and the inhibition at 50 µM (S. aureus DNA gyrase) was 88%.

COc1ccc2ncc(C#N)c(N3CCC(NCc4cc5c([nH]4)c(=O)oc4ccc(F)cc45)CC3)c2n1 [Compound 195, 4-(4-{[(8-fluoro-4-oxo-3,4-dihydro[1]benzopyrano[3,4-b]pyrrol-2-yl)methyl]amino}piperidin-1-yl)-6-methoxy-1,5-naphthyridine-3-carbonitrile] gave an IC50 (E. coli DNA gyrase) of 140 nM, an inhibition at 50 µM (E. coli DNA gyrase) of 99% and an IC50 [1] of 100 nM. The inhibition at 50 µM [1, 2] was 100%, the IC50 (E. coli Topoisomerase IV) was 300 nM and the inhibition at 50 µM (E. coli Topoisomerase IV) was 100%. For the same compound, the IC50 (S. aureus DNA gyrase) was 100 nM and the inhibition at 50 µM (S. aureus DNA gyrase) was 100%.

For O=c1oc2ccc(F)cc2c2cc(CNC3CCN(c4nccc5nccnc45)CC3)[nH]c12 [Compound 196, 8-fluoro-2-({[1-(pyrido[3,4-b]pyrazin-5-yl)piperidin-4-yl]amino}methyl)[1]benzopyrano[3,4-b]pyrrol-4(3H)-one], the IC50 (E. coli DNA gyrase) was 790 nM, the inhibition at 50 µM (E. coli DNA gyrase) was 85% and the IC50 [1] was 390 nM. For the same compound, the inhibition at 50 µM [1] was 89%, the IC50 (E. coli Topoisomerase IV) was 2540 nM and the inhibition at 50 µM (E. coli Topoisomerase IV) was 100%. The IC50 (S. aureus DNA gyrase) was 160 nM and the inhibition at 50 µM (S. aureus DNA gyrase) was 83%.

COc1cnc2ccnc(N3CCC(NCc4cc5c([nH]4)c(=O)oc4ccc(F)cc45)CC3)c2n1 [Compound 199, 8-fluoro-2-({[1-(3-methoxypyrido[3,4-b]pyrazin-5-yl)piperidin-4-yl]amino}methyl)[1]benzopyrano[3,4-b]pyrrol-4(3H)-one] showed an inhibition at 50 µM (E. coli DNA gyrase) of 90%, an inhibition at 50 µM [1] of 100% and an inhibition at 50 µM (E. coli Topoisomerase IV) of 100%. For the same compound, the inhibition at 50 µM (S. aureus DNA gyrase) was 92%.

Work on COc1ccc2cc(F)nc(N3CCN(CC(O)CNc4cc(=O)oc5ccc(F)cc45)CC3)c2c1 (stereo not drawn) [Compound 203, 6-fluoro-4-({3-[4-(3-fluoro-7-methoxyisoquinolin-1-yl)piperazin-1-yl]-2-hydroxypropyl}amino)-2H-1-benzopyran-2-one] yielded an inhibition at 50 µM (E. coli DNA gyrase) of 100%, an inhibition at 50 µM [1] of 100% and an inhibition at 50 µM (E. coli Topoisomerase IV) of 100%. It also gave an inhibition at 50 µM (S. aureus DNA gyrase) of 100%.
